These results are taken from patent US9878986B2, “Compounds for selective histone deacetylase inhibitors, and pharmaceutical composition comprising the same” (CHONG KUN DANG PHARMACEUTICAL CORP., priority 2013, dated 2018).

For one assay, the target named is T1, HDAC 6 (Homo sapiens, UniProt Q9UBN7).
T1 sequence (Q9UBN7 1-1215): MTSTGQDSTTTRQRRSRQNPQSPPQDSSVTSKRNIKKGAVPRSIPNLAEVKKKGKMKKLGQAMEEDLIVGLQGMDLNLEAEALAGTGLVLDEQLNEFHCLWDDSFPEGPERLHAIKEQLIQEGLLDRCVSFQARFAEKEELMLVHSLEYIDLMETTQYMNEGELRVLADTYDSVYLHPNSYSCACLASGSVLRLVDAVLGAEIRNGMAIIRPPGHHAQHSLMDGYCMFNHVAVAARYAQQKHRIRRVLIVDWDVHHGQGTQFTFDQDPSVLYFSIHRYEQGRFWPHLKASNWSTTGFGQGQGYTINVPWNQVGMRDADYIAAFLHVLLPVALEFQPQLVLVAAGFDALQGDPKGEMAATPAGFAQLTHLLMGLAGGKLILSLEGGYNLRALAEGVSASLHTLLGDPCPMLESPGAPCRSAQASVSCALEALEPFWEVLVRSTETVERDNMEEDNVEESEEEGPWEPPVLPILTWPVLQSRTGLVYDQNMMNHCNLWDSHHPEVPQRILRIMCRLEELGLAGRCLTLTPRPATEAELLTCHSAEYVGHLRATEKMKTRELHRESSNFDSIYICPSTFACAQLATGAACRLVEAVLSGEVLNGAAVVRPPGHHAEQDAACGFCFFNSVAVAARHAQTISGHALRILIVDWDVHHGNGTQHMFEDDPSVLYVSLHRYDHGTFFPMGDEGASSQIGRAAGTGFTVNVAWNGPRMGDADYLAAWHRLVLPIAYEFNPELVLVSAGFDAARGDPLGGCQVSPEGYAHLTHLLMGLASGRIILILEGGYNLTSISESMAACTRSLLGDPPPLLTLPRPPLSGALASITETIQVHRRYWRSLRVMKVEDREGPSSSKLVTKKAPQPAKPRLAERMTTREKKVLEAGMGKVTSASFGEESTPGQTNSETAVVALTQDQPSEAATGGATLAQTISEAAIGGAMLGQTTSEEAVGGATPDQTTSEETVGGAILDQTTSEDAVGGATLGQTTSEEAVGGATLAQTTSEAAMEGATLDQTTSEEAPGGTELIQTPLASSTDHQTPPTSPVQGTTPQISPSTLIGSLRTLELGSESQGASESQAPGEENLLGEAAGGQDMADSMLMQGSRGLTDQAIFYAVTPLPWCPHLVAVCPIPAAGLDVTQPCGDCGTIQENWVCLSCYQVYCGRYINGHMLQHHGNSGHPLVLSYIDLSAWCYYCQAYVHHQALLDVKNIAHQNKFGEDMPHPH
In words: Test of HDAC activities, HDAC6 (fluorimetric). The format is biochemical. Also noted: purchased Calbiochem 382180. The conditions noted are these: samples at 0.1, 1, 10, 100, 1000 nM; 37° C. 60 minutes; fluorescence Ex 390, Em 460; read-out: HDAC inhibitory activities, HDAC6. How it is done:
(§1) The HDAC inhibitory activities of test materials were measured using the HDAC1 Fluorimetric Drug Discovery Assay Kit (Enzolifesciences: BML-AK511) and HDAC6 human recombinant (Calbiochem: 382180). In the HDAC1 assay, the samples were treated with concentrations of 100, 1000, and 10000 nM, and in the HDAC6 assay, the samples were treated with concentrations of 0.1, 1, 10, 100, and 1000 nM. After the treatment of the samples, the samples were reacted at 37° C. for 60 minutes, treated with a developer, and then reacted at 37° C. for 30 minutes. Then, the fluorescence intensity (Ex 390, Em 460) was measured using the FlexStation 3 (Molecular device).

The target in the next assay is HDAC1 (Homo sapiens, UniProt Q13547). In words: Test of HDAC activities, HDAC1 Fluorimetric Drug Discovery Assay Kit. Also noted: purchased Enzolifesciences BML-AK511. The conditions noted are these: samples at 100, 1000, 10000 nM; 37° C. 60 minutes; fluorescence Ex 390, Em 460; read-out: HDAC inhibitory activities, HDAC1. Format: biochemical. As for the experimental part:
as §1

HDAC1, sequence (Q13547 whole entry): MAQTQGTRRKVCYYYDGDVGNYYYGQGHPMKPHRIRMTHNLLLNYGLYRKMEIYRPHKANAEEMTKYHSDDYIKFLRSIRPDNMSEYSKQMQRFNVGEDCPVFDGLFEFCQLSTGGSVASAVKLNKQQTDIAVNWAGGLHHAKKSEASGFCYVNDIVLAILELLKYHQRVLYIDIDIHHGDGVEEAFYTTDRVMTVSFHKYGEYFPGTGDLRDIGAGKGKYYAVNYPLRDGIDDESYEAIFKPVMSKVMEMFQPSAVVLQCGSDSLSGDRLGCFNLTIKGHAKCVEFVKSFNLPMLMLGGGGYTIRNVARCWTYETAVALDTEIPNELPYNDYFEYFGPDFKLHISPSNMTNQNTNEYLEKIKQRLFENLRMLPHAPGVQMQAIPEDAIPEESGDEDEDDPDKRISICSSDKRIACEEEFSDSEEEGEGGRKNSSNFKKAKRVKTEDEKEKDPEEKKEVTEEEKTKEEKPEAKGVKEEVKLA

For the compound `Cn1ncc2cc(-c3cccc(N(Cc4ccc(C(=O)NO)cc4)C(=O)N4CCOCC4)c3)ccc21` [Compound 252, N-(4-(hydroxycarbamoyl)benzyl)-N-(3-(1-methyl-1H-indazol-5-yl)phenyl)morpholine-4-carboxamide], the IC50 at HDAC 6 turned out to be 6 nM; on HDAC1, 151 nM.
For the compound `CN1CCN(C(=O)N(Cc2ccc(C(=O)NO)cc2)c2cccc(Br)c2)CC1` [Compound 256, N-(3-bromophenyl)-N-(4-(hydroxycarbamoyl)benzyl)-4-methylpiperazine-1-carboxamide], the values for the IC50 at HDAC 6 and on HDAC1 were 1 nM and 148 nM, respectively.
The matching figures for `Cn1ncc2cc(-c3cccc(N(Cc4ccc(C(=O)NO)cc4)C(=O)N4CCCCC4)c3)ccc21` [Compound 260, N-(4-(hydroxycarbamoyl)benzyl)-N-(3-(1-methyl-1H-indazol-5-yl)phenyl)piperidine-1-carboxamide]: 7 nM and 551 nM.
With `O=C(NO)c1ccc(CN(C(=O)N2CCOCC2)c2cccc(-c3ccc4cc[nH]c4c3)c2)cc1` [Compound 261, N-(3-(1H-indol-6-yl)phenyl)-N-(4-(hydroxycarbamoyl)benzyl)morpholine-4-carboxamide], the results for the IC50 on HDAC 6 and at HDAC1 were 2 nM and 72 nM, respectively.
For the compound `O=C(NO)c1ccc(CN(C(=O)N2CCOCC2)c2cccc(-c3cccnc3)c2)cc1` [Compound 262, N-(4-(hydroxycarbamoyl)benzyl)-N-(3-(pyridin-3-yl)phenyl)morpholine-4-carboxamide], the IC50 on HDAC 6 came out at 1 nM; at HDAC1 it was 164 nM.
The matching figures for `O=C(NO)c1ccc(CN(C(=O)N2CCOCC2)c2cccc(-c3ccc4[nH]ccc4c3)c2)cc1` [Compound 263, N-(3-(1H-indol-5-yl)phenyl)-N-(4-(hydroxycarbamoyl)benzyl)morpholine-4-carboxamide]: 2 nM and 75 nM.
On to `O=C(NO)c1ccc(CN(C(=O)N2CCOCC2)c2ccccc2)cc1` [Compound 279, N-(4-(hydroxycarbamoyl)benzyl)-N-phenylmorpholine-4-carboxamide], for which the IC50 at HDAC 6 is 1 nM; at HDAC1, 292 nM.
The matching figures for `O=C(NO)c1ccc(CN(C(=O)N2CCOCC2)c2ccccn2)cc1` [Compound 280, N-(4-(hydroxycarbamoyl)benzyl)-N-(pyridin-2-yl)morpholine-4-carboxamide]: 5 nM and 1260 nM.
Take `O=C(NO)c1ccc(CN(C(=O)N2CCOCC2)c2cccnc2)cc1` [Compound 281, N-(4-(hydroxycarbamoyl)benzyl)-N-(pyridin-3-yl)morpholine-4-carboxamide]: the values for the IC50 on HDAC 6 and on HDAC1 were 27 nM and 3910 nM, respectively.
Consider `O=C(NO)c1ccc(CN(C(=O)N2CCN(Cc3ccccc3)CC2)c2ncccn2)cc1` [Compound 309, 4-benzyl-N-(4-(hydroxycarbamoyl)benzyl)-N-(pyrimidin-2-yl)piperazine-1-carboxamide], for which the IC50 on HDAC 6 amounted to 3 nM.
Regarding `O=C(NO)c1ccc(CN(C(=O)N2CCC(O)(c3ccccc3)CC2)c2ncccn2)cc1` [Compound 311, 4-hydroxy-N-(4-(hydroxycarbamoyl)benzyl)-4-phenyl-N-(pyrimidin-2-yl)piperidine-1-carboxamide], the IC50 at HDAC 6 is 13 nM; at HDAC1, 22900 nM.
With `O=C(NO)c1ccc(CN(C(=O)N2CCOCC2)c2ncccn2)cc1` [Compound 312, N-(4-(hydroxycarbamoyl)benzyl)-N-(pyrimidin-2-yl)morpholine-4-carboxamide], the IC50 at HDAC 6 was 7 nM; on HDAC1, 22700 nM.
The matching figures for `CC1CN(C(=O)N(Cc2ccc(C(=O)NO)cc2)c2ncccn2)CC(C)O1` (stereo not shown) [Compound 313, N-(4-(hydroxycarbamoyl)benzyl)-2,6-dimethyl-N-(pyrimidin-2-yl)morpholine-4-carboxamide]: 7 nM and 35900 nM.
The matching figures for `O=C(NO)c1ccc(CN(C(=O)N2CC=C(c3ccccc3)CC2)c2ccccn2)cc1` [Compound 352, N-(4-(hydroxycarbamoyl)benzyl)-4-phenyl-N-(pyridin-2-yl)-5,6-dihydropyridine-1(2H)-carboxamide]: 7 nM and 4620 nM.
The matching figures for `CN1CCN(C(=O)N(Cc2ccc(C(=O)NO)cc2)c2ccccn2)CC1` [Compound 353, N-(4-(hydroxycarbamoyl)benzyl)-4-methyl-N-(pyridin-2-yl)piperazine-1-carboxamide]: 10 nM and 4530 nM.
Take `CCN1CCN(C(=O)N(Cc2ccc(C(=O)NO)cc2)c2ccccn2)CC1` [Compound 354, 4-ethyl-N-(4-(hydroxycarbamoyl)benzyl)-N-(pyridin-2-yl)piperazine-1-carboxamide]: the IC50 on HDAC 6 amounted to 9 nM; at HDAC1, 3910 nM.
The matching figures for `O=C(NO)c1ccc(CN(C(=O)N2CCN(Cc3ccccc3)CC2)c2ccccn2)cc1` [Compound 355, 4-benzyl-N-(4-(hydroxycarbamoyl)benzyl)-N-(pyridin-2-yl)piperazine-1-carboxamide]: 5 nM and 2340 nM.
In the case of `COc1ccccc1N1CCN(C(=O)N(Cc2ccc(C(=O)NO)cc2)c2ccccn2)CC1` [Compound 356, N-(4-(hydroxycarbamoyl)benzyl)-4-(2-methoxyphenyl)-N-(pyridin-2-yl)piperazine-1-carboxamide], the IC50 is 4 nM at HDAC 6 and 3820 nM on HDAC1.
The matching figures for `O=C(NO)c1ccc(CN(C(=O)N2CCN(c3ccc(F)cc3)CC2)c2ccccn2)cc1` [Compound 357, 4-(4-fluorophenyl)-N-(4-(hydroxycarbamoyl)benzyl)-N-(pyridin-2-yl)piperazine-1-carboxamide]: 3 nM and 3280 nM.
With `O=C(NO)c1ccc(CN(C(=O)N2CCCC2)c2ccccn2)cc1` [Compound 358, N-(4-(hydroxycarbamoyl)benzyl)-N-(pyridin-2-yl)pyrrolidine-1-carboxamide], the IC50 came to 9 nM on HDAC 6 and 4170 nM on HDAC1.
As for `O=C(NO)c1ccc(CN(C(=O)N2CCOCC2)c2nc(-c3ccccc3)cs2)cc1` [Compound 370, N-(4-(hydroxycarbamoyl)benzyl)-N-(4-phenylthiazol-2-yl)morpholine-4-carboxamide], the IC50 on HDAC 6 turned out to be 1 nM; at HDAC1, 710 nM.
The matching figures for `O=C(NO)c1ccc(CN(C(=O)N2CCOCC2)c2nc(-c3ccc(Cl)cc3)cs2)cc1` [Compound 371, N-(4-(4-chlorophenyl)thiazol-2-yl)-N-(4-(hydroxycarbamoyl)benzyl)morpholine-4-carboxamide]: 20 nM and 1330 nM.
For `CN1CCCN(C(=O)N(Cc2ccc(C(=O)NO)cc2)c2ccccn2)CC1` [Compound 376, N-(4-(hydroxycarbamoyl)benzyl)-4-methyl-N-(pyridin-2-yl)-1,4-diazepane-1-carboxamide], the IC50 at HDAC 6 was 4 nM.
The same measure, in the same setting: as for `O=C(NO)c1ccc(CN(C(=O)N2CCC2)c2ccccn2)cc1` [Compound 377, N-(4-(hydroxycarbamoyl)benzyl)-N-(pyridin-2-yl)azetidine-1-carboxamide], the figure is 5 nM.
Same read-out and setting: as for `Cc1ccc(N2CCN(C(=O)N(Cc3ccc(C(=O)NO)cc3)c3ccccn3)CC2)cc1C` [Compound 379, 4-(3,4-dimethylphenyl)-N-(4-(hydroxycarbamoyl)benzyl)-N-(pyridin-2-yl)piperazine-1-carboxamide], the figure is 4 nM.
